Measurements from patent US10272117B2, “Methods of using an activator of cereblon for neural cell expansion and the treatment of central nervous system disorders” (Celgene Corporation, priority 2014, dated 2019).

Legend:
zebrafish embryos = experiment: Whole-mount in situ hybridization of gene expression in zebrafish embryos; assay type: in vivo
Procedure: This process was carried out basically in accordance with the technique of Thisse et al. See High-resolution In Situ Hybridization to Whole-mount Zebrafish Embryos, Nat. Protcol., 3 (1) 59-69, (2008). The differences were that 5 mg/ml Torula yeast RNA was used as a blocker in the probe hybridization solution, and that 0.5% Blocking Reagent (Roche) was used as a blocker in the antibody reaction solution. The cDNA of the genes used as the probe (the six3.2 gene, the emx1 gene, the pax2.1 gene, the foxg1 gene, and the otx2 gene) were presents of the original provider. As the probe for the lhx2 gene, the one initially cloned by Ando was used. For the probes of the CRBN gene and related genes, primers were designed based on the EST database of zebrafish, and the probes were cloned from a cDNA library.
Expression of Pou5f1 (Oct3/4), Klf4, c-Myc, and HuC (Elavl3) in zebrafish embryos was analyzed by in situ hybridization. The embryos were fixed with 4% paraformaldehyde for 1 hour at room temperature and rinsed with phosphate buffered saline (PBS). The fixed embryos were refixed with 100% methanol and placed at −80° C. for over 12 hours. The embryos were defixed by rinsing with PBS, and the skin was digested with pronase (2 mg/ml), followed by refixation and defixation, and prehybridized in HYB* buffer (50% formamide, 5×SSC, 10 mM Citric acid, 0.1% Tween 20) for 15 minutes and in HYB+(added as 5 mg/ml torula (yeast) RNA, 50 μg/ml heparin to HYB*) for 1 hour at 65° C. After addition of 1 ng/μl of DIG (digoxigenin)-labeled probe, hybridization was performed for overnight at 65° C. After hybridization, the embryos were washed by 50% formamide in 2×SSC for 30 minutes (twice), 2×SSC for 15 minutes, 0.2×SSC for 30 minutes (twice) at 65° C. Then blocking treatment was done by 0.5% purified casein in PBSTw (PBS plus 0.1% Tween 20) at room temperature for 1 hour. After that, immunostaining was performed in 1/4000 dilution of anti-DIG Fab-AP fragment in 0.5% purified casein in PBSTw for 4 hours at room temperature.
After washing with PBSTw for 90 minutes, staining was carried out in the presence of substrate of alkaline phosphatase (Nitro blue tetrazolium and 5-bromo 4-chloro 3-indolyl phosphate) in 100 mM Tris pH 9.5, 50 mM MgCl2, 100 mM NaCl, and 0.1% Tween-20. Reaction was stopped by rapid exchange of reaction buffer to PBSTw and cleaned with glycerol serials (30%, 50%, and 70% in PBS).
Expression of Ascl1a and Pou3f2b in CRBN-overexpressing and Ikaros-knockdown zebrafish embryos was analyzed by in situ hybridization. The embryos were fixed with 4% paraformaldehyde for 1 hour at room temperature and rinsed with phosphate buffered saline (PBS). The fixed embryos were refixed with 100% methanol and placed at −80° C. for over 12 hours. The embryos were defixed by rinsing with PBS, and the skin was digested with pronase (2 mg/ml), followed by refixation and defixation, and prehybridized in HYB* buffer (50% formamide, 5×SSC, 10 mM Citric acid, 0.1% Tween 20) for 15 minutes and in HYB+(added as 5 mg/ml torula (yeast) RNA, 50 μg/ml heparin to HYB*) for 1 hour at 65° C. After addition of 1 ng/μl of DIG (digoxigenin)-labeled probe, hybridization was performed for overnight at 65° C. After hybridization, the embryos were washed by 50% formamide in 2×SSC for 30 minutes twice, 2×SSC for 15 minutes, 0.2×SSC for 30 minutes twice at 65° C. Then blocking treatment was done by 0.5% purified casein in PBSTw (PBS plus 0.1% Tween 20) at room temperature for 1 hour. After that, immunostaining was performed in 1/4000 dilution of anti-DIG Fab-AP fragment in 0.5% purified casein in PBSTw for 4 hours at room temperature.
Expression of Sox2, Pou5f1 (Oct3/4), c-Myc, and Klf4 in zebrafish embryos was analyzed in untreated and CRBN-overexpressing zebrafish embryos by in situ hybridization. Overexpression was performed as follows: single-cell stage embryos were microinjected with 250 ng/μl of capped mRNA synthesized in vitro. […]

zebrafish = experiment: Resistance to thalidomide in brain development (brain thickness to body length); assay type: in vivo
Procedure: To analyze the functional relationship between thalidomide and BRD7, brain development of BRD7-knockdown zebrafish treated with thalidomide was examined and compared with that of normal zebrafish treated with thalidomide. […] FIGS. 12A and 12B show the normal zebrafish treated with 400 μM thalidomide. FIGS. 12C and 12D show the BRD7-knockdown zebrafish treated with 400 μM thalidomide. FIGS. 12A′ and 12C′ show the brain regions of the normal zebrafish treated with 400 μM thalidomide. FIGS. 12B′ and 12D′ show the brain regions of the BRD7-knockdown zebrafish treated with 400 μM thalidomide. […] The percentages of brain thickness to body length in the normal and the BRD7-knockdown zebrafish, with or without thalidomide treatments were also measured. […] The brain size of the BRD7-knockdown larvae incubated in thalidomide is 98.8% of that of the BRD7-knockdown larvae incubated in the absence of thalidomide.

Substance | expression of Ascl1a (zebrafish embryos; 25 hpf) | expression of Pou3f2b (zebrafish embryos; 26 hpf) | expression of Pou5f1 (Oct3/4) in the second and fourth rhombomeres in the hindbrain (zebrafish embryos; 10 hpf and 11 hpf) | expression of Huc in the brain and spinal cord (zebrafish embryos; 11 hpf) | number of HuC-positive neural progenitor cells in the brain and spinal cord (zebrafish embryos; 15 hpf) | number of the telencephalic neurons and the spinal cord neurons (zebrafish embryos; 16 hpf) | expression of Klf4 in the rostral portion of the neural tube (zebrafish embryos; 18 hpf) | expression of c-Myc in the tectal proliferation zone and ciliary marginal zone (zebrafish embryos; 30 hpf) | brain size relative to normal larvae (zebrafish; in 400 μM of thalidomide, n=12) | brain development of BRD7-knockdown larvae (zebrafish; in thalidomide solution (400 μM)) | brain size relative to normal larvae (zebrafish; normal E3 medium, without thalidomide treatment)
5′-TTCCTGTGCCTCCTCAGTCTCCATC-3′ (all phosphorodiamidate morpholino (PMO)) [Ikaros-knockdown, 25-mer antisense morpholino oligonucleotide (AMO) used for the Ikaros gene knockdown] | remarkably increased | increased |  |  |  |  |  |  |  |  | 
5′-TGTGTTTCTTGTGCTTTTTGCCCAT-3′ (all phosphorodiamidate morpholino (PMO)) [BRD7-knockdown, 25-mer antisense morpholino oligonucleotide (AMO) used for the BRD7 gene knockdown] |  |  | increased | increased | increased | increased | increased | clearly increased | 140.0% | developed almost normally | 120.7%
